Measurements taken from US8088886B2, “Lipoprotein associated phospholipase A2, inhibitors thereof and use of the same in diagnosis and therapy” (Smith-Kline Beecham P.L.C., priority 1993, dated 2012).

Target: T1, Lp-PLA2 (Homo sapiens, UniProt Q13093)
T1 construct: from tissue; host or cells: LDL from plasma (apheresis)
T1 sequence (Q13093 22-441): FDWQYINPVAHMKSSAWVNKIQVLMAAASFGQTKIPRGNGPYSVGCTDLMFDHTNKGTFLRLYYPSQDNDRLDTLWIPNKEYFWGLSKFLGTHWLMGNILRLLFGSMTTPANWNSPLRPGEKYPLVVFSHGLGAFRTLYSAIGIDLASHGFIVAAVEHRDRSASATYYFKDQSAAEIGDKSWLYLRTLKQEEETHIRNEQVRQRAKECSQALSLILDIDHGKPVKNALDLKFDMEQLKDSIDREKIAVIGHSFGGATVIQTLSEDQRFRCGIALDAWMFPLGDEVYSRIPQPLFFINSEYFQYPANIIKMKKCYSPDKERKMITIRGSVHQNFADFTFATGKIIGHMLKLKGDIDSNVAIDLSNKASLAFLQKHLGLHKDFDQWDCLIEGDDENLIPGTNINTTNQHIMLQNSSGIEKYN
Experiment: Screen for Lp-PLA2 inhibition (turnover of artificial substrate (A), absorbance at 405 nm)
Assay type: biochemical
Conditions: 37° C., pH 7.4, 10 min pre-incubation, 20 μM substrate (A)
Description: 1. Screen for Lp-PLA2 Inhibition.
Enzyme activity was determined by measuring the rate of turnover of the artificial substrate (A) at 37° C. in 50 mM HEPES (N-2-hydroxyethylpiperazine-N′-2-ethanesulphonic acid) buffer containing 150 mM NaCl, pH 7.4.
Assays were performed in 96 well titre plates.
Lp-PLA2 was pre-incubated at 37° C. with vehicle or test compound for 10 min in a total volume of 180 μl. The reaction was then initiated by the addition of 20 μl 10× substrate (A) to give a final substrate concentration of 20 μM. The reaction was followed at 405 nm for 20 minutes using a plate reader with automatic mixing. The rate of reaction was measured as the rate of change of absorbance.

IC50 [µM]	SMILES
0.8	CCCCCCCCCCCCCCCCOCC(COP(=O)([O-])OCC[N+](C)(C)C)NC(C)=O (centres unmarked) [Compound 1]
0.55	CCCCCCCCCCCCCCCCCCOCC(COP(=O)([O-])OCC[n+]1ccn(C)c1)NC(C)=O (centres unmarked) [Compound 8]
2.5	CCCCCCCCCCCCCCCCCCOCC(COP(=O)([O-])OCC[N+](C)(C)C)NC(=O)C(F)(F)F (centres unmarked) [Compound 9]
3.5	CCCCCCCCCCCCCCCCCCOCC(COP(=O)([O-])OCC[N+](C)(C)C)NC(C)=O (centres unmarked) [Compound 2]
1	CCCCCCCCCCCCCCCCCCOCC(COP(=O)([O-])OCC[S+](C)C)NC(C)=O (centres unmarked) [Compound 3]
